According to the NIST ThermoML archive (doi:10.1016/j.jct.2005.03.019):
Numbers after ± are expanded uncertainties.

Assay: xn = mol fraction of the nth substance listed
Conditions: 101 kPa, Liquid, Vibrating tube method

CC1COC(=O)O1 (configuration not stated) [4-methyl-1,3-dioxolan-2-one] + CCc1ccccc1
Conditions	mass density [kg/m3]
293.15 K, x2 = 0	1200.3 ± 0.1
293.15 K, x2 = 0.0592	1173.5 ± 0.1
293.15 K, x2 = 0.1139	1149.9 ± 0.1
293.15 K, x2 = 0.1749	1124.6 ± 0.1
293.15 K, x2 = 0.2471	1096.1 ± 0.2
293.15 K, x2 = 0.3274	1066.1 ± 0.2
293.15 K, x2 = 0.3856	1045.5 ± 0.2
293.15 K, x2 = 0.4527	1022.7 ± 0.2
293.15 K, x2 = 0.5049	1005.6 ± 0.2
293.15 K, x2 = 0.5672	986.1 ± 0.2
293.15 K, x2 = 0.6368	965.1 ± 0.2
293.15 K, x2 = 0.6978	947.4 ± 0.2
293.15 K, x2 = 0.7529	932 ± 0.2
293.15 K, x2 = 0.8149	915.2 ± 0.2
293.15 K, x2 = 0.8742	899.6 ± 0.2
293.15 K, x2 = 0.9368	883.5 ± 0.2
303.15 K, x2 = 0	1180.6 ± 0.1
303.15 K, x2 = 0.0489	1159.1 ± 0.1
303.15 K, x2 = 0.1278	1126.2 ± 0.1
303.15 K, x2 = 0.1974	1098.6 ± 0.1
303.15 K, x2 = 0.2484	1079.4 ± 0.2
303.15 K, x2 = 0.3149	1055.2 ± 0.2
303.15 K, x2 = 0.3759	1034.1 ± 0.2
303.15 K, x2 = 0.4349	1014.5 ± 0.2
303.15 K, x2 = 0.4876	997.7 ± 0.2
303.15 K, x2 = 0.5498	978.5 ± 0.2
303.15 K, x2 = 0.5922	965.9 ± 0.2
303.15 K, x2 = 0.659	946.7 ± 0.2
303.15 K, x2 = 0.7249	928.4 ± 0.2
303.15 K, x2 = 0.7941	910 ± 0.2
303.15 K, x2 = 0.8578	893.5 ± 0.2
303.15 K, x2 = 0.9247	876.8 ± 0.2
313.15 K, x2 = 0	1161.3 ± 0.1
313.15 K, x2 = 0.0662	1133.7 ± 0.1
313.15 K, x2 = 0.1258	1110 ± 0.1
313.15 K, x2 = 0.1835	1088 ± 0.1
313.15 K, x2 = 0.2458	1065.3 ± 0.1
313.15 K, x2 = 0.3342	1034.7 ± 0.2
313.15 K, x2 = 0.3958	1014.5 ± 0.2
313.15 K, x2 = 0.4592	994.6 ± 0.2
313.15 K, x2 = 0.5135	978.2 ± 0.2
313.15 K, x2 = 0.5629	963.7 ± 0.2
313.15 K, x2 = 0.6248	946.2 ± 0.2
313.15 K, x2 = 0.6724	933.2 ± 0.2
313.15 K, x2 = 0.7383	915.7 ± 0.2
313.15 K, x2 = 0.7873	903.2 ± 0.2
313.15 K, x2 = 0.8534	886.7 ± 0.2
313.15 K, x2 = 0.9378	866.4 ± 0.2
323.15 K, x2 = 0	1142.4 ± 0.1
323.15 K, x2 = 0.0635	1117.4 ± 0.1
323.15 K, x2 = 0.1139	1098.3 ± 0.1
323.15 K, x2 = 0.1729	1076.8 ± 0.1
323.15 K, x2 = 0.2384	1054 ± 0.1
323.15 K, x2 = 0.3248	1025.4 ± 0.1
323.15 K, x2 = 0.3859	1006.2 ± 0.2
323.15 K, x2 = 0.4523	986.2 ± 0.2
323.15 K, x2 = 0.5048	971 ± 0.2
323.15 K, x2 = 0.5733	951.9 ± 0.2
323.15 K, x2 = 0.6387	934.4 ± 0.2
323.15 K, x2 = 0.7038	917.6 ± 0.2
323.15 K, x2 = 0.7587	903.8 ± 0.2
323.15 K, x2 = 0.8137	890.5 ± 0.2
323.15 K, x2 = 0.8698	877.2 ± 0.2
323.15 K, x2 = 0.9247	864.5 ± 0.2
333.15 K, x2 = 0	1124 ± 0.1
333.15 K, x2 = 0.0587	1102.4 ± 0.1
333.15 K, x2 = 0.1328	1076.2 ± 0.1
333.15 K, x2 = 0.1849	1058.6 ± 0.1
333.15 K, x2 = 0.2489	1037.9 ± 0.1
333.15 K, x2 = 0.3186	1016.2 ± 0.1
333.15 K, x2 = 0.3767	998.9 ± 0.1
333.15 K, x2 = 0.435	982.2 ± 0.2
333.15 K, x2 = 0.4957	965.5 ± 0.2
333.15 K, x2 = 0.5549	949.7 ± 0.2
333.15 K, x2 = 0.6247	931.8 ± 0.2
333.15 K, x2 = 0.6978	913.8 ± 0.2
333.15 K, x2 = 0.7629	898.4 ± 0.2
333.15 K, x2 = 0.8247	884.2 ± 0.2
333.15 K, x2 = 0.8624	875.7 ± 0.2
333.15 K, x2 = 0.9358	859.5 ± 0.2
343.15 K, x2 = 0	1106 ± 0.1
343.15 K, x2 = 0.0524	1088.2 ± 0.1
343.15 K, x2 = 0.1125	1068.5 ± 0.1
343.15 K, x2 = 0.1828	1046.3 ± 0.1
343.15 K, x2 = 0.2398	1029.1 ± 0.1
343.15 K, x2 = 0.3049	1010.2 ± 0.1
343.15 K, x2 = 0.3673	992.8 ± 0.1
343.15 K, x2 = 0.4348	974.7 ± 0.2
343.15 K, x2 = 0.4817	962.6 ± 0.2
343.15 K, x2 = 0.5428	947.3 ± 0.2
343.15 K, x2 = 0.6048	932.3 ± 0.2
343.15 K, x2 = 0.6721	916.5 ± 0.2
343.15 K, x2 = 0.7498	899 ± 0.2
343.15 K, x2 = 0.8247	882.7 ± 0.2
343.15 K, x2 = 0.8827	870.5 ± 0.2
343.15 K, x2 = 0.9478	857 ± 0.2
353.15 K, x2 = 0	1088.4 ± 0.1
353.15 K, x2 = 0.0629	1069.2 ± 0.1
353.15 K, x2 = 0.1272	1050.2 ± 0.1
353.15 K, x2 = 0.1947	1031 ± 0.1
353.15 K, x2 = 0.2598	1013.3 ± 0.1
353.15 K, x2 = 0.3138	999 ± 0.1
353.15 K, x2 = 0.3945	978.6 ± 0.1
353.15 K, x2 = 0.4629	962 ± 0.2
353.15 K, x2 = 0.5148	949.8 ± 0.2
353.15 K, x2 = 0.5749	936.1 ± 0.2
353.15 K, x2 = 0.6345	923 ± 0.2
353.15 K, x2 = 0.7039	908.2 ± 0.2
353.15 K, x2 = 0.7635	895.8 ± 0.2
353.15 K, x2 = 0.8137	885.7 ± 0.2
353.15 K, x2 = 0.8642	875.7 ± 0.2
353.15 K, x2 = 0.9248	863.9 ± 0.2
